# Experimental data: patent publication US8461149B2, “Compounds useful as protein kinase inhibitors” (Vertex Pharmaceuticals Incorporated, priority 2007, dated 2013)
# Target: PLK1 (Homo sapiens, UniProt P53350)
# Test: PLK1 inhibition assay (radioactive-phosphate incorporation)
# Type: biochemical
# Conditions: 150 μM ATP, 300 μM peptide, 4 nM PLK1, 90 minutes, 25° C., read-out: Ki in the radioactive incorporation assay (Ki(app))
# Method: The compounds of the present invention are evaluated as inhibitors of human PLK kinase using the following assays.
# Compounds were screened for their ability to inhibit PLK1 using a radioactive-phosphate incorporation assay. Assays were carried out in a mixture of 25 mM HEPES (pH 7.5), 10 mM MgCl2, 0.1% BSA, and 2 mM DTT. Final substrate concentrations were 150 μM (350 μM for determining values of less than 1 nM) [γ-33P]ATP (115 mCi 33P ATP/mmol ATP, Amersham Pharmacia Biotech/Sigma Chemicals) and 300 μM (450 μM for determining values of <1 nM) peptide (KKKISDELMDATFADQEAK) (SEQ ID NO:1). Assays were carried out at 25° C. in the presence of 4 nM (1 nM for determining values of less than 1 nM) PLK1. An assay stock buffer solution was prepared containing all of the reagents listed above, with the exception of ATP and the test compound of interest. 30 μL of the stock solution was placed in a 96 well plate followed by addition of 2 μL of DMSO stock containing serial dilutions of the test compound (typically starting from a final concentration of 10 μM with 2-fold serial dilutions) in duplicate (final DMSO concentration 5%). The plate was pre-incubated for 10 minutes at 25° C. and the reaction initiated by addition of 8 μL [γ-33P]ATP (final concentration 150 μM (350 μM for determining values of less than 1 nM))).
# The reaction was stopped after 90 minutes (240 minutes for determining values of less than 1 nM) by the addition of 100 μL 0.14M phosphoric acid. A multiscreen phosphocellulose filter 96-well plate (Millipore, Cat. No. MAPHN0B50) was pretreated with 100 μL 0.2M phosphoric acid prior to the addition of 125 μL of the stopped assay mixture. The plate was washed with 200 μL 0.2M phosphoric acid for 4 times. After drying, 100 μL Optiphase ‘SuperMix’ liquid scintillation cocktail (Perkin Elmer) was added to the well prior to scintillation counting (1450 Microbeta Liquid Scintillation Counter, Wallac).
# After removing mean background values for all of the data points, Ki(app) data were calculated from non-linear regression analysis of the initial rate data using the Prism software package (GraphPad Prism version 3.0cx for Macintosh, GraphPad Software, San Diego Calif., USA).
# PLK1, sequence (P53350 whole entry): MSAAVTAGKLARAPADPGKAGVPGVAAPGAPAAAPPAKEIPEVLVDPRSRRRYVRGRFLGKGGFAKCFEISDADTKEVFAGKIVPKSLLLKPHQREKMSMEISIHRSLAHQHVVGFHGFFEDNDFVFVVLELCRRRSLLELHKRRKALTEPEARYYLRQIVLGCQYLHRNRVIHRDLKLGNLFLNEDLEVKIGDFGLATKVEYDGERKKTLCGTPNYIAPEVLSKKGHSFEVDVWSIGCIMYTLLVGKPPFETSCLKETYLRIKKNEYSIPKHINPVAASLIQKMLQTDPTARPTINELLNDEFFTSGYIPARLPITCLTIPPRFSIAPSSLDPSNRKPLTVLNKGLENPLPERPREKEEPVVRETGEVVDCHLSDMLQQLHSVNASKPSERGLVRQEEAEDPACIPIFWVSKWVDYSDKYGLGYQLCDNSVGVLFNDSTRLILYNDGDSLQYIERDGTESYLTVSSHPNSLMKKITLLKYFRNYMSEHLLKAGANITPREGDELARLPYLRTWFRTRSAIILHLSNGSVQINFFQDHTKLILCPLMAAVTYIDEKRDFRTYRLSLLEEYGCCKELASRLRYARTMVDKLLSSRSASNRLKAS
row,SMILES,Ki [nM]
1,"COc1cc(C(=O)NC2CC2)ccc1Nc1ncc2c(n1)N([C@@H]1CCC(F)(F)C1)CC(C)(C)C(=O)N2C [Compound I-1, (R)—N-cyclopropyl-4-(9-(3,3-difluorocyclopentyl)-5,7,7-trimethyl-6-oxo-6,7,8,9-tetrahydro-5H-pyrimido[4,5-b][1,4]diazepin-2-ylamino)-3-methoxybenzamide]",1 to 10
2,"COc1cc(C(=O)NC2CC2)ccc1Nc1ncc2c(n1)N([C@@H]1CCC(F)(F)C1)CC1(CC1)C(=O)N2C [Compound I-4, (R)—N-cyclopropyl-4-(9′-(3,3-difluorocyclopentyl)-5′-methyl-6′-oxo-5′,6′,8′,9′-tetrahydrospiro[cyclopropane-1,7′-pyrimido[4,5-b][1,4]diazepine]-2′-ylamino)-3-methoxybenzamide]",1 to 10
3,"COc1cc(C(=O)N[C@@H]2CCC(F)(F)C2)ccc1Nc1ncc2c(n1)N([C@@H]1CCC(F)(F)C1)CC1(CC1)C(=O)N2C [Compound I-5, N-((R)-3,3-difluorocyclopentyl)-4-(9′-((R)-3,3-difluorocyclopentyl)-5′-methyl-6′-oxo-5′,6′,8′,9′-tetrahydrospiro[cyclopropane-1,7′-pyrimido[4,5-b][1,4]diazepine]-2′-ylamino)-3-methoxybenzamide]",1 to 10

# Same assay, conditions: conditions for values of less than 1 nM: 350 μM ATP, 450 μM peptide, 1 nM PLK1, 240 minutes, 25° C., read-out: Ki in the radioactive incorporation assay (Ki(app))
row,SMILES,Ki [nM]
1,"COc1cc(C(=O)N[C@@H]2CC[C@@H](F)C2)ccc1Nc1ncc2c(n1)N([C@@H]1CCC(F)(F)C1)CC(C)(C)C(=O)N2C [Compound I-2, 4-(9-((R)-3,3-difluorocyclopentyl)-5,7,7-trimethyl-6-oxo-6,7,8,9-tetrahydro-5H-pyrimido[4,5-b][1,4]diazepin-2-ylamino)-N-((1R,3R)-3-fluorocyclopentyl)-3-methoxybenzamide]",< 1
2,"COc1cc(C(=O)N[C@@H]2CCC(F)(F)C2)ccc1Nc1ncc2c(n1)N([C@@H]1CCC(F)(F)C1)CC(C)(C)C(=O)N2C [Compound I-3, N-((R)-3,3-difluorocyclopentyl)-4-(9-((R)-3,3-difluorocyclopentyl)-5,7,7-trimethyl-6-oxo-6,7,8,9-tetrahydro-5H-pyrimido[4,5-b][1,4]diazepin-2-ylamino)-3-methoxybenzamide]",< 1
3,"CCNC(=O)c1ccc(Nc2ncc3c(n2)N([C@@H]2CCC(F)(F)C2)[C@H](CC)c2nncn2-3)c(OC)c1 [Compound I-6, 4-((R)-5-((R)-3,3-difluorocyclopentyl)-4-ethyl-4,5-dihydro-[1,2,4]triazolo[4,3-f]pteridin-7-ylamino)-N-ethyl-3-methoxybenzamide]",< 1
4,"CC[C@@H]1c2nncn2-c2cnc(Nc3ccc(C(=O)NC4CC4)cc3OC)nc2N1[C@@H]1CCC(F)(F)C1 [Compound I-7, N-cyclopropyl-4-((R)-5-((R)-3,3-difluorocyclopentyl)-4-ethyl-4,5-dihydro-[1,2,4]triazolo[4,3-f]pteridin-7-ylamino)-3-methoxybenzamide]",< 1
5,"CCNC(=O)c1ccc(Nc2ncc3c(n2)N([C@@H]2CCC(F)(F)C2)[C@H](CC)C(=O)N3C)c(OC)c1 [Compound I-8, 4-((R)-8-((R)-3,3-difluorocyclopentyl)-7-ethyl-5-methyl-6-oxo-5,6,7,8-tetrahydropteridin-2-ylamino)-N-ethyl-3-methoxybenzamide]",< 1
6,"CC[C@@H]1C(=O)N(C)c2cnc(Nc3ccc(C(=O)NC4CC4)cc3OC)nc2N1[C@@H]1CCC(F)(F)C1 [Compound I-9, N-cyclopropyl-4-((R)-8-((R)-3,3-difluorocyclopentyl)-7-ethyl-5-methyl-6-oxo-5,6,7,8-tetrahydropteridin-2-ylamino)-3-methoxybenzamide]",< 1
